Laboratory results reported in patent US10624874B2, “Lasofoxifene modulation of membrane-initiated estrogen signals and methods for tumor treatment” (Zhejiang Jiachi Development Pharmaceuticals LTD, priority 2017, dated 2020).

Columns and labels:
[1] = tested on: H460 cells; assay: Proliferation of H460 lung cancer cells; format: cell-based; conditions: for proliferation of H460 cells: 2 μM, ER-α36+/EGFR+ cells, FIG. 5-B
Description: (§1) A. Cell lines HBE, H1299 and H460 were cultured. Expression of EGFR, ER-α66, ER-α46, ER-α36, ER-β, GPER-1 were tested using Western blot. B. HBE cells and H460 cells were treated with 2 μM tamoxifen or 2 μM lasofoxifene. Proliferation of HBE cells and H460 cells were shown after each treatment. C. H460 cells were treated with vehicle only, or gefitinib, or lasofoxifene, or a combination of gefitinib and lasofoxifene. Proliferation of […] were shown after each treatment. D. H1299 were treated with vehicle only, or gefitinib, or lasofoxifene, or a combination of gefitinib and lasofoxifene. Proliferation of lung cancer cells was shown after each treatment.
(§2) Cells were inoculated into 24 well plates with culture medium and treated using the designated concentration of drugs. Cell number was counted using a cell counter (Count Star). The cell bio-behaviors including total cell number and movement were measured using a real-time cell monitoring system. Briefly, the image was captured at 5 min intervals for 66 h. Cell morphological parameters and the movement of each individual cell was calculated following manufacture's instruction.
(§3) We thus tested the expression of ER-α36 from lung cancer cells.

[2] = tested on: H1299 cells; assay: Proliferation of H1299 lung cancer cells; format: cell-based
Description: as §1, §2, §3

[3] = tested on: HBE cells; assay: Proliferation of HBE cells; format: cell-based; conditions: 2 μM, cells not expressing ER-α36, FIG. 5-B
Description: as §1, §2, §3

[4] = tested on: BT474 breast cancer cells; assay: Proliferation of Herceptin-resistance BT474 breast cancer cells; format: cell-based; conditions: cells treated with 10 μg/ml Herceptin 3 months; 2 μM lasofoxifene, FIG. 10B
Description: BT474 breast cancer cells were treated with 10 μg/ml Herceptin® in medium for 3 months. A. Cells positively expressed of ER-α36, and decreased the expression level of HER2.

[5] = tested on: gastric cancer cells; assay: Gastric cancer cell division; format: cell-based; conditions: ER-α36 positive gastric cancer cells, FIG. 8-D
Source text: (§4) A: ER-α36 was positively expressed in colon cancer cells. […] NCC: normal colon cells. CCC: colon cancer cells. C: ER-α36 was positively expressed in gastric cancer cells. […] NGC: normal gastric cells. GCC: gastric cancer cells. N=3×3; *** means P<0.001.

[6] = biological target: T1, GPER1 (Homo sapiens, UniProt Q99527); assay: Cytosolic Ca2+ in HEK293 cells overexpressing GPER1-EGFP (Fura-red); format: cell-based; conditions: HEK293 overexpressing GPER1-EGFP vs EGFP vector, FIG. 11B
T1 construct: expressed in transfected cells; host or cells: HEK293
T1 sequence (Q99527 whole entry, species assumed): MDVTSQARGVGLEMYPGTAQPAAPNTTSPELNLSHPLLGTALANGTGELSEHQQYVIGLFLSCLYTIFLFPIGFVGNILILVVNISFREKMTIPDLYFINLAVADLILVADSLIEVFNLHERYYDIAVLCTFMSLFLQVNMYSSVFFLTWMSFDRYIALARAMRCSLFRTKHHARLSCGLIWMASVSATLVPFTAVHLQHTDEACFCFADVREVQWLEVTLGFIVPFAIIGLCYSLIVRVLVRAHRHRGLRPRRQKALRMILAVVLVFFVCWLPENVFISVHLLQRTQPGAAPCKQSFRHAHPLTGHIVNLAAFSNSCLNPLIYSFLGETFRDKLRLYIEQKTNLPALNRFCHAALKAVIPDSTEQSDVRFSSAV
Description: A. HEK293 cells were transfected with either GPER1-EGFP or EGFP alone.
The assays were performed as following. Briefly, cells were grown on a glass-bottomed perfusion chamber mounted on the stage of an inverted confocal microscope (Andor), and then incubated with 2 μM Fura-red AM (Molecular Probes, Eugene, Oreg., USA) for 60 min at 37° C. in normal culture media. Cells were then perfused continuously with Hanks' balanced salt solution (Sigma) containing 1.8 mM CaCl2 and 0.8 mM MgCl2, pH 7.4. […] Cells were perfused with complete culture media without phenol red, and Fura-red was excited at 572 nm. The fluorescence emitted at 657 nm was then collected and recorded using a CCD-based imaging system running software (Andor).

[7] = tested on: tamoxifen-resistance MCF-7 cells; assay: Proliferation of acquired tamoxifen-resistance MCF-7 cells; format: cell-based, human; conditions: FIG. 4B
Description: A. MCF-7 cells were treated with tamoxifen for ten months. Expression of ER-α66, ER-α46, ER-α36, GPER-1 were tested using Western blot. B. After MCF-7 cells were treated with tamoxifen for ten months, cells were treated with either 2 μM tamoxifen or 2 μM lasofoxifene. Proliferation of MCF-7 were shown under each treatment. ** indicates P<0.01.
MCF-7 cells were grown in EMEM medium containing 10% FBS, antibiotics and 0.1 μM tamoxifen for three months. And then increase tamoxifen concentration to 0.5 μM for another three months, Finally, MCF-7 cells were grown in EMEM medium containing 10% FBS, antibiotics and 1 μM tamoxifen for four months. Tamoxifen-resistance MCF-7 cells were tested by counting cell proliferation rate when cells were grown in high concentration tamoxifen.
To verify our hypothesis that overexpressed ER-α36 variant may result in acquired de novo tamoxifen-resistance, we induced MCF-7 cells using tamoxifen for ten months. We found the expression of ER-α66 was decreased ([…], top panel). In contrast, the expression level of ER-α36 was enhanced (FIG. 4A, middle panel). The expression level of GPER1 was not affected (FIG. 4A bottom panel).

[8] = tested on: xenograft H460 tumors; assay: Growth of xenograft H460 tumors in nude mice; format: in vivo; conditions: intragastric daily for 2-3 weeks, FIG. 7
Description: FIG. 7: Activity to Inhibition of growth of xenograft-ER-α36+/EGFR+ lung tumor (H460) in nude mice by lasofoxifene (LAS) and/or gefitinib. A. Nude mice were grafted with H460 cells. Tumor size were shown after treatment with gefitinib, 3 mg lasofoxifene per kilogram of mouse body mass (3 mg/kg, Las3.0), 1.5 mg lasofoxifene per kilogram of mouse body mass (1.5 mg/kg, Las1.5), 0.75 mg lasofoxifene per kilogram of mouse body mass (0.75 mg/kg, Las0.75), or a combination of gefitinib and 1.5 mg lasofoxifene per kilogram of mouse body mass (Gef+Las1.5). B. Statistical result of tumor mass from two repeat experiments (n≥6).* and ** mean P<0.05 and P<0.01, respectively.
H460 cells were grown in RPMI-1640 medium containing 10% FBS. When cells are 70-80% confluent and ready for experiments, replace medium with fresh medium for 3 hours. Remove medium and wash cells with medium without FBS for three times. Cells were then trypsinized and suspended in medium, equal volume of cells and support gel was mixed up to 200 μl for each injection. Cells were injected subcutaneously (s.c.) into 4-6 week old nude mice. 1.0˜2.0×10^6 H460 cells were administrated into each nude mouse. […] Tumor size were calculated by the formula: volume=(width)^2×length/2.
To verify in vitro results, we constructed xenograft H460 tumors in nude mice. The tumor size was measured using digital vernier caliper. […]

[9] = tested on: colon cancer cells; assay: Colon cancer cell division; format: cell-based; conditions: ER-α36 positive colon cancer cells, FIG. 8-B
Source text: as §4

[10] = tested on: MDA-MB231 breast cancer cells; assay: Proliferation of triple negative MDA-MB231 breast cancer cells; format: cell-based; conditions: ER-α36 positive MDA-MB231, DMEM 10% FBS, FIG. 9
Source text: MDA-MB231 cells treated with lasofoxifene in DMEM medium containing 10% FBS. N=3×3; * and ** mean P<0.05 and P<0.01, respectively.

[11] = tested on: MCF-7 cells; assay: Inhibition of MCF-7 cell division, cells pre-cultured with or without insulin; format: cell-based, human; conditions: same drug compared between ER-α36 positive (insulin-free) and insulin medium cells, FIG. 3B
Description: A. MCF-7 cells were grown in insulin-free (IL-) medium for three months. Expression of ER-α66, ER-α36, ER-β and GPER were tested using Western blot. B. MCF-7 cells, after cultured in either medium with insulin or without insulin, were treated with tamoxifen or lasofoxifene. […] C. It compares IC50 (μM) of MCF-7 cells responding to tamoxifen or lasofoxifene at the condition of pre-cultured in medium without insulin. *** indicates P<0.001. D. Graph compares IC50 (μM) of MCF-7 cells responding to tamoxifen or lasofoxifene at the condition of pre-cultured in medium with insulin. * indicates P<0.05.
The transcription variant of ER-α36 lacks the AF-1 and AF2 domains. […] It was found located at plasma membrane and cytosol (Boonyaratanakornkit, V. Steroids. 2011 August; 76(9):877-84). […] Phosphorylated IRS interacts with dimer estrogen-ER complexes, which can then translocate into the nucleus and bond with ERE sequence to regulate RNA transcription through the estrogen classical nuclear pathway. […] In contrast, the expression levels of other estrogen receptors were not affected (FIG. 3A).

[12] = tested on: Bcl-2 expression in MCF-7 cells; assay: Bcl-2 expression in MCF-7 cells by western blotting; format: cell-based, human; conditions: for effect on Bcl-2 expression in medium without estrogen: MCF-7, charcoal stripped FBS, phenol red-free EMEM, vs Blank, FIG. 2B
Description: FIG. 2: Inhibition of Bcl-2 expression in MCF-7 cells by lasofoxifene in comparison with tamoxifen. A: MCF-7 cells were cultured in either EMEM medium containing 10% FBS (Normal) or 5% charcoal striped FBS (CS) for 72 hours. Western blotting assay were performed to analyze Bcl-2 expression (CS: charcoal striped). B: MCF-7 cells were cultured in EMEM medium containing insulin and 5% charcoal striped FBS for 72 hours and then treated by lasofoxifene and tamoxifen for 48 hours. Western blotting assay were performed to analyze Bcl-2 expression. C. MCF-7 were cultured in EMEM medium containing insulin and 10% FBS for 72 hours and then treated by lasofoxifene and tamoxifen for 48 hours. Western blotting assay were performed to analyze Bcl-2 expression. […] E. Statistical analysis of three repeats of part C. N=3×3.
HEK-293, MCF-7, MDA-MB-231, HBE, H1299 and H460 cells were grown following ATCC protocol. The expression level of estrogen-bound receptors was measured using western blotting. Briefly, 80-90% confluence cells were harvested and lysed in RIPA buffer or 1×PBS containing 1% triton-x-100 and protease inhibitor cocktail. Total protein concentration was measured using Bio-rad protein staining dye. Western blotting was performed following standard protocol using nitrocellulose membrane (Millipore) and Bio-rad semi-dry transfer system. The equal amount of total protein from cell lysate was loaded to SDS-PAGE for western blotting. The expression level of ER-α36 and 66, ER-β and GPER1 was measured using antibody.
Estrogen and ER complex binds to estrogen response element (ERE) in chromosome to regulate RNA transcription. Bcl-2 is a key member of anti-apoptosis family proteins. Its overexpression has been linked to many kinds of cancers in human being. […] We first assessed whether lasofoxifene inhibited Bcl-2 expression at higher efficiency compared to tamoxifen. MCF-7 cells were grown in DMEM medium containing insulin and 10% FBS or 5% charcoal striped FBS for 72 h. Cells were then treated by lasofoxifene and tamoxifen for 48 h. We confirmed previous study that the expression of Bcl-2 protein was enhanced by culture medium containing estrogen compared with that containing charcoal-stripped (CS) FBS (FIGS. 2A and B, Blank).

[13] = biological target: ER-β (Homo sapiens, UniProt Q92731); conditions: higher affinity than raloxifene and tamoxifen; Gennari 2006; cited from earlier work
Chain of ER-β (Q92731 whole entry, species assumed): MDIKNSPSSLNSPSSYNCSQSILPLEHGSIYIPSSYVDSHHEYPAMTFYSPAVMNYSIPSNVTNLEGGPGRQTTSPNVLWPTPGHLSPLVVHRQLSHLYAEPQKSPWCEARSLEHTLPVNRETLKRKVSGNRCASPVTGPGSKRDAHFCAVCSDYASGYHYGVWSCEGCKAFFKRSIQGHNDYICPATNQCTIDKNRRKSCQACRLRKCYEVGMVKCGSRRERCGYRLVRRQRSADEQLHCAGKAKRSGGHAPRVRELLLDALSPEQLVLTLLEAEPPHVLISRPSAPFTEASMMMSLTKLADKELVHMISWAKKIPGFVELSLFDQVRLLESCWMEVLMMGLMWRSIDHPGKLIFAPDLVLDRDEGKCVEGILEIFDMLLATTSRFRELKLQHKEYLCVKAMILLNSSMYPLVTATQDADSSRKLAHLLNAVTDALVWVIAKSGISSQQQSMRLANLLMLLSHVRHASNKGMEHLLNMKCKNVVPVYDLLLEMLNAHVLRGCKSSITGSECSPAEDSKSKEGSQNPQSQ

[14] = biological target: T2, ER-α (Homo sapiens, UniProt P03372); conditions: cited from earlier work
T2 sequence (P03372 311-547 limits assumed): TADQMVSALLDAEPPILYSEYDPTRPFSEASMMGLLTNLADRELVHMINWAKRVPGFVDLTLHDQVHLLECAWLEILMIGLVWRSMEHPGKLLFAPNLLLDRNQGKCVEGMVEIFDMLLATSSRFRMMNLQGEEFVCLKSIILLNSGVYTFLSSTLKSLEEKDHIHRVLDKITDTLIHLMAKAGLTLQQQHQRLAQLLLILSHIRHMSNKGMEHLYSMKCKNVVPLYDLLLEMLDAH

SMILES: COc1cc2ncnc(Nc3ccc(F)c(Cl)c3)c2cc1OCCCN1CCOCC1 [gefitinib]
- proliferation of H460 cells, gefitinib alone or combined ([1]; concentration not given, FIG. 5C): inhibited the proliferation of H460
- proliferation of H1299 cells, gefitinib alone or combined ([2]; concentration not given, FIG. 5D): did not inhibit H1299 cell proliferation

SMILES: Oc1ccc2c(c1)CC[C@H](c1ccccc1)[C@@H]2c1ccc(OCCN2CCCC2)cc1 [lasofoxifene, (−)-cis-(5R,6S)-6-phenyl-5-[4-(2-pyrrolidin-1-ylethoxy)phenyl]-5,6,7,8-tetrahydronaphthalen-2-ol]
- proliferation of HBE cells [3]: Neither tamoxifen nor lasofoxifene affected the proliferation of HBE cells
- proliferation of Herceptin-resistance BT474 cells [4]: Sensitive response
- gastric cancer cell division [5]: inhibited gastric cancer cell division
- cytosolic [Ca2+]i [6]: significantly enhanced cytosolic [Ca^2+]i
- inhibition at 2 µM ([7]; Homo sapiens, MCF7, MCF-7 induced by tamoxifen for over 10 months, read-out: inhibiting activity on proliferation): > 50%
- growth of xenograft H460 tumors [8]: inhibited the growth of xenograft H460 tumors
- proliferation of H460 cells [1]: inhibited
- proliferation of H1299 cells ([2]; 2 μM, ER-α36 high, weak EGFR, FIG. 5-D): inhibited
- colon cancer cell division [9]: inhibited colon cancer cell division
- proliferation of triple negative breast cancer cells [10]: the same lasofoxifene activity was also found
- inhibition of MCF-7 cell division, without vs with insulin (IC50 comparison) [11]: more effectively inhibited divisions of MCF-7 cell which positively expressed ER-α36
- effect on Bcl-2 expression in medium without estrogen ([12]; treated 48 h): neither tamoxifen nor lasofoxifene affected Bcl-2 expression
- inhibition of Bcl-2 expression ([12]; MCF-7, medium with insulin and 10% FBS 72 h, treated 48 h, 2.5 μM LAS vs 2.5 μM TAM, FIG. 2C): weaker activity to inhibit Bcl-2 expression compared with tamoxifen
- dose dependence of Bcl-2 expression inhibition ([12]; MCF-7, medium with insulin and 10% FBS, 48 h, FIG. 2D): inhibited Bcl-2 expression in a dosage dependent manner
- affinity for ER-β relative to those reported for raloxifene and tamoxifen [13]: at least 10 fold
- affinity for ER-α relative to those reported for raloxifene and tamoxifen ([14]; higher affinity than raloxifene and tamoxifen, Gennari 2006): at least 10 fold
- binding affinity to ER-αLBD ([14]; reported value): 1.5 nM

SMILES: O=C(c1ccc(OCCN2CCCCC2)cc1)c1c(-c2ccc(O)cc2)sc2cc(O)ccc12 [raloxifene]
- cytosolic [Ca2+]i [6]: significantly enhanced cytosolic [Ca^2+]i

SMILES: CC/C(=C(\c1ccccc1)c1ccc(OCCN(C)C)cc1)c1ccccc1 [tamoxifen]
- proliferation of HBE cells [3]: Neither tamoxifen nor lasofoxifene affected the proliferation of HBE cells
- inhibiting activity on proliferation ([7]; 2 μM, MCF-7 induced by tamoxifen for over 10 months): did not inhibit MCF-7 cell proliferation
- proliferation of H460 cells [1]: exhibited opposite effect
- inhibition of MCF-7 cell division, without vs with insulin (IC50 comparison) [11]: exerted the opposite effect
- effect on Bcl-2 expression in medium without estrogen ([12]; treated 48 h): neither tamoxifen nor lasofoxifene affected Bcl-2 expression
